Patent US20160228420A1, “POLYETHYLENE GLYCOL-CONTAINING COMPOSITION” (SANTEN PHARMACEUTICAL CO., LTD., priority 2013, published 2016)

How the values were obtained:
[1] = disclosed in Patent Document 2; cited from earlier work
[2] = repeated oral administration; disclosed in Patent Document 2; cited from earlier work
[3] = test system: VEGF induced retinal vascular permeability promotion; assay: VEGF induced rabbit retinal vascular permeability promotion model; assay type: in vivo; details: 0.5 mg/eye intravitreal in PEG 400; VEGF 2 months after administration; vitreous fluorescein 2 days after VEGF
Procedure: By using the VEGF induced rabbit retinal vascular permeability promotion model, usefulness of the polyethylene glycol 400 formulation of Compound A was evaluated. Incidentally, the VEGF has been reported to promote retinochoroidal vascular permeability by intravitreal administration (Invest Ophthalmol Vis Sci. 2013; 54(1):503-11.), and has generally been used for preparation of a pathological condition accompanied by retinal and choroidal vascular disorder (for example, diabetic retinopathy, diabetic macular edema, retinal vein occlusion, retinal artery occlusion, exudative age-related macular degeneration, etc.).
To 1.5 g of the present compound A was added 12 mL of polyethylene glycol 400 (NOF CORPORATION) and the mixture was stirred, and after confirming the dissolution thereof, a suitable amount of polyethylene glycol 400 was added to make the whole amount 15 mL. […]
After 2 days from the VEGF administration, 0.1 mL/kg of a 10% fluorescein solution was intravenously administered to rabbits. After 2 hours from administration of the fluorescein, the fluorescein concentration in the vitreous body was measured by fluorophotometry, and this was used as an index of the retinal vascular permeability.
Thereafter, according to Formula 1, an inhibition ratio (%) of the administered medicine to the retinal vascular permeability promotion caused by VEGF was calculated. […]

| SMILES | storage stability [1] | deposition of minerals in the stomach [2] | Inhibition ratio (%) (retinal vascular permeability) [3] |
| --- | --- | --- | --- |
| O=C(CO)Nc1cc(CSc2ncccc2C(=O)Nc2ccc(OC(F)(F)F)cc2)ccn1.O=S(=O)(O)c1ccccc1 [2-[[[2-[(hydroxyacetyl)amino]-4-pyridinyl]methyl]thio]-N-[4-(trifluoromethoxy)phenyl]-3-pyridinecaboxamide] | excellent | no deposition of minerals is recognized | – |
| O=C(CO)Nc1cc(CSc2ncccc2C(=O)Nc2ccc(OC(F)(F)F)cc2)ccn1 [Compound A, 2-[[[2-[(hydroxyacetyl)amino]-4-pyridinyl]methyl]thio]-N-[4-(trifluoromethoxy)phenyl]-3-pyridinecaboxamide] | – | – | 95.3 |
